According to patent US10966426B2, “Herbicidal compositions comprising phenylpyrimidines” (BASF SE, priority 2016, dated 2021):

Experiments:
Assay type in all cases: in vivo
[1] = tested on: Bromus sterilis; experiment: greenhouse post-emergence treatment, BROST; conditions: Bromus sterilis, 480 h, 20 DAT, BROST
Method in brief: (§1)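 Scoring used a 0 to 100 scale, with 100 denoting no emergence or full destruction of at least the above-ground parts, recorded within a 2 to 4 week test period. Test plants grew in loamy sand containing about 3.0% humus at 10-25° C. or 20-35° C., after direct sowing or transplanting, and received water-based treatments post-emergence.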

[2] = tested on: Poa annua; experiment: greenhouse post-emergence treatment, POAAN; conditions: Poa annua, 480 h, POAAN, bentazon solo 60 gai/ha, 20 DAT
Method in brief: (§2)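 Each species was grown separately and treated once it reached 3 to 15 cm, using actives suspended or emulsified in water. Plants were kept at 10-25° C. or 20-35° C., depending on species. Damage is a 0–100 rating taken during 2 to 4 weeks.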

[3] = tested on: Setaria viridis; experiment: greenhouse post-emergence treatment, SETVI; conditions: Setaria viridis, 480 h, 20 DAT, SETVI, Table X3, read-out: % activity, solo application
Method in brief: as §1

[4] = tested on: Alopecurus myosuroides; experiment: greenhouse post-emergence treatment, ALOMY; conditions: Alopecurus myosuroides, 480 h, 20 DAT, ALOMY
Method in brief: as §1

[5] = tested on: Matricaria chamomilla; experiment: greenhouse post-emergence treatment, MATCH; conditions: Matricaria chamomilla, 480 h, 20 DAT, MATCH
Method in brief: as §2

[6] = tested on: Brachiaria decumbens; experiment: greenhouse post-emergence treatment, BRADC; conditions: Urochloa decumbens, 480 h, 20 DAT, BRADC
Method in brief: as §2

[7] = tested on: Ambrosia elatior; experiment: greenhouse post-emergence treatment, AMBEL; conditions: AMBEL, 20 DAT
Method in brief: as §2

[8] = tested on: Digitaria sanguinalis; experiment: greenhouse post-emergence treatment, DIGSA; conditions: Digitaria sanguinalis, 480 h, 20 DAT, DIGSA
Method in brief: as §1

[9] = tested on: Echinocloa crus-galli; experiment: greenhouse post-emergence treatment, ECHCG; conditions: ECHCG, 20 DAT
Method in brief: as §2

[10] = 60 gai/ha (SL 480 g/l), Table X3, read-out: % activity, solo application
[11] = 120 gai/ha (SL 480 g/l), Table X3, read-out: % activity, solo application
[12] = 30 gai/ha (SL 480 g/l), Table X3, read-out: % activity, solo application

CC(C)N1C(=O)c2ccccc2NS1(=O)=O [bentazon]
inhibition at 60 g/ha [1, 10]: 0%
pest or weed control at 30 g/ha ([1]; bentazon solo 30 gai/ha): 0%
pest or weed control at 60 g/ha ([1]; bentazon solo 60 gai/ha): 0%
pest or weed control at 120 g/ha ([1]; bentazon solo 120 gai/ha): 0%
pest or weed control at 240 g/ha ([1]; bentazon solo 240 gai/ha): 0%
pest or weed control at 60 g/ha [2]: 0%
inhibition at 60 g/ha ([3]; 60 gai/ha (SL 480 g/l)): 0%
inhibition at 240 g/ha ([3]; 240 gai/ha (SL 480 g/l)): 30%
inhibition at 120 g/ha [4, 11]: 0%
inhibition at 240 g/ha ([4]; 240 gai/ha (SL 480 g/l), Table X3, read-out: % activity, solo application): 0%
pest or weed control at 60 g/ha ([4]; bentazon solo 60 gai/ha): 0%
pest or weed control at 240 g/ha ([4]; bentazon solo 240 gai/ha): 0%
inhibition at 30 g/ha [5, 12]: 20%
inhibition at 60 g/ha [5, 10]: 30%
pest or weed control at 30 g/ha ([5]; bentazon solo 30 gai/ha): 0%
pest or weed control at 60 g/ha ([5]; bentazon solo 60 gai/ha): 0%
pest or weed control at 120 g/ha ([5]; bentazon solo 120 gai/ha): 0%
inhibition at 30 g/ha [6, 12]: 0%
inhibition at 60 g/ha [6, 10]: 0%
inhibition at 120 g/ha [6, 11]: 0%
pest or weed control at 30 g/ha ([6]; bentazon solo 30 gai/ha): 0%
pest or weed control at 60 g/ha ([6]; bentazon solo 60 gai/ha): 0%
pest or weed control at 240 g/ha ([6]; bentazon solo 240 gai/ha): 20%
% activity ([7]; bentazon solo 30 gai/ha): 60%
% activity ([7]; bentazon solo 60 gai/ha): 60%
inhibition at 30 g/ha [8, 12]: 0%
inhibition at 60 g/ha [8, 10]: 0%
pest or weed control at 30 g/ha ([8]; bentazon solo 30 gai/ha): 0%
pest or weed control at 60 g/ha ([8]; bentazon solo 60 gai/ha): 0%
pest or weed control at 120 g/ha ([8]; bentazon solo 120 gai/ha): 0%
pest or weed control at 240 g/ha ([8]; bentazon solo 240 gai/ha): 30%
% activity ([9]; bentazon solo 30 gai/ha): 0%
% activity ([9]; bentazon solo 60 gai/ha): 0%
% activity ([9]; bentazon solo 120 gai/ha): 0%
% activity ([9]; bentazon solo 240 gai/ha): 20%
inhibition at 60 g/ha ([9]; Echinochloa crus-galli, 480 h, 60 gai/ha (SL 480 g/l), Table X3, read-out: % activity, solo application): 0%
inhibition at 120 g/ha ([9]; Echinochloa crus-galli, 480 h, 120 gai/ha (SL 480 g/l), Table X3, read-out: % activity, solo application): 0%
inhibition at 240 g/ha ([9]; Echinochloa crus-galli, 480 h, 240 gai/ha (SL 480 g/l), Table X3, read-out: % activity, solo application): 20%
